Results from patent publication US11974990B2, “TXNIP-TRX complex inhibitors and methods of using the same” (City of Hope, priority 2018, dated 2024).
“Also recorded” adds a separate entry of the source.

Tests used:
TXNIP mRNA [1] = test: TXNIP mRNA expression (RT-PCR) in primary human pancreatic islets; assay type: cell-based; details: human pancreatic islets (500 IEQ), 25 mM glucose, 48 h (FIG. 18)
Method: FIG. 18. […] Human pancreatic islets (500 IEQ) were cultured with PIM(R) (Prodo Labs) in 25 mM glucose with C1 as indicated for 48 h. Total RNA was collected. RT-PCR was performed in triplicate and data shown are the mean+SEM. Statistical analysis was performed using one-way ANOVA: *<0.0001.
(§1) RNA extraction and quantitative RT-PCR. RNA was extracted using the Direct-zol™ RNA MiniPrep Plus (Zymo Research). Reverse transcription of RNA samples into cDNA was performed using the GeneAmp RNA PCR Kit (Applied Biosystems), dNTP (from Roche Applied Science), Rnase inhibitor, MULV Reverse Transcriptase and Random hexamers reagent (all from Invitrogen). Diluted cDNA was quantified using real-time PCR performed with Power SYBR Green qPCR MasterMix (Applied Biosystem) and 7500 real-time PCR system (Applied Biosystems). The HPRT1 gene was used as an internal control.

TXNIP mRNA [2] = test: TXNIP mRNA expression (RT-PCR) in murine MIN6 pancreatic beta cells; assay type: cell-based; details: 25 mM glucose, 72 h (FIG. 11 left)
Method: FIG. 11. […] MIN6 cells were cultured in 25 mM glucose with C1 at uM concentrations for 72 h. Total RNA was prepared. RT-PCR was performed. Data shown are the mean+SEM from triplicates. Statistical analysis was performed for each column vs. HG DMSO using one-way ANOVA: *<0.0001.
as §1

TNF-α mRNA = TNF-α mRNA expression (RT-PCR) in murine RAW macrophages; assay type: cell-based; details: RAW cells, 25 mM glucose, 72 h (FIG. 10B)
Method: FIGS. 10A-10B. FIG. 10A. […] RAW cells were cultured in 25 mM glucose with C1 (uM) for 72 h. Total RNA was prepared. RT-PCR was performed. Data shown are the mean+SEM from triplicates. Statistical analysis was performed for each column vs. high glucose (HG) DMSO using one-way ANOVA: *<0.0001. FIG. 10B. […] RAW cells were cultured in 25 mM glucose with C1 (uM) for 72 hours. Total RNA was prepared. RT-PCR was performed. Data shown are the mean+SEM from triplicates. Statistical analysis was performed for each column vs. HG DMSO using one-way ANOVA: *<0.0001.
as §1

THP1 cells = test: Differential gene expression analysis by RNA-seq in high glucose treated THP1 cells; assay type: cell-based, human; details: THP1, HG 25 mM 72 hr with vs without C1 5 uM
Method: FIG. 17. Hierarchical Clustering using differential expressed genes. Differential expression was calculated using these counts with edgeR (5, 6) version 3.0. After correcting for differences in library sizes, a fold change of >1.5 and a p-value of <0.05 were applied to select expressed genes. The corrected measures of the latter were further processed using Cluster3.0 (7) to generate a heatmap using Java TreeView. C=HG treated THP-1 cells (A, B are replicates); T=HG+C1 5 uM (C, D are replicates). […]
RNA-seq: Sequence alignment and gene counts. RNA-Seq reads were trimmed to remove sequencing adapters using Trimmomatic (Bolger et al., 2014), and polyA tails using FASTP (Chen et al., 2018). The processed reads were mapped to the human genome (hg19) using STAR software (v. 020201) (Dobin et al., 2013). […]
Differential gene expression analyses by RNA-seq. […] Differential expression analysis was conducted by adjusting read counts to normalized expression values using the TMM normalization method in edgeR package (Robinson et al., 2010). […] Next, Raw counts for each gene in the GENCODE coding gene annotation (hg19) were measured using HTseq (Anders and Huber, 2010) with an argument of “-r pos -s reserve”. Differential expression was calculated using these counts with edgeR (5, 6) version 3.0. […]

purified TXNIP = biological target: T1, purified TXNIP (Homo sapiens, UniProt Q9H3M7); test: DARTS assay with purified TXNIP and TRX1 proteins; assay type: binding; details: purified TXNIP + TRX1, protease, 7 minutes (FIG. 16)
T1 construct: purchased LSBio (TXNIP); Sigma (TRX1); host or cells: E. coli (TXNIP)
T1 sequence (Q9H3M7 1-391): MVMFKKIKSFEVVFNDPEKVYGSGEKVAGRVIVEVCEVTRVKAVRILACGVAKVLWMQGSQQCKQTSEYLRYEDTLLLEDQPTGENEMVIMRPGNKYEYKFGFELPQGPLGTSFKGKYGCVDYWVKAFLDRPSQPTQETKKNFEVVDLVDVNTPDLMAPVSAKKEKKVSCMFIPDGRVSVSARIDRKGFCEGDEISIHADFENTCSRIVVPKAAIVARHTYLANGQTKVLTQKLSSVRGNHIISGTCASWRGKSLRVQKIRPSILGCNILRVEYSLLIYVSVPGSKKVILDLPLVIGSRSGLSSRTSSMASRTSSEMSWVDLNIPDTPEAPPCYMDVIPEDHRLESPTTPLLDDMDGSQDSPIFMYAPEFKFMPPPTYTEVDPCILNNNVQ
Method: FIG. 16. […] Purified TRX and TXNIP proteins and C1 (at the indicated concentrations) were mixed together. Protease was added. Aliquots were withdrawn at 7 minutes and loaded on 10% SDS gels. C1: compound 1; control: without protease.
To further confirm that C1 is able to protect TXNIP from proteolysis in the presence of TXNIP+TRX1, we performed DARTS assay using pure TXNIP protein (LSBio) and TRX1 protein (Sigma). The TRX1 protein we employed is also usually used for TRX1 activity assays. In contrast, the TXNIP protein is generated by E. coli and might not be in the active form. Therefore, we re-natured the protein prior to use in the DARTS assay.

CC(C)C(C(=O)O)N1C(=O)c2ccncc2C1=O (centres unmarked) [Compound C1, 2-(1,3-dioxo-1,3-dihydro-2H-pyrrolo[3,4-c]pyridin-2-yl)-3-methylbutanoic acid]
TXNIP mRNA (TXNIP mRNA [1]): targets TXNIP mRNA; also recorded: efficiently inhibited TXNIP mRNA
TXNIP mRNA levels (TXNIP mRNA [2]): decreased TXNIP
TNF-α mRNA expression (TNF-α mRNA): decreased TNF-α mRNA expression; also recorded: inhibited TXNIP and TNF-α mRNA expression
TXNIP and TNF-α expression by RNA-seq (THP1 cells): suppressed TXNIP and TNF-α
protection of purified TXNIP from proteolysis (purified TXNIP): protects purified TXNIP from proteolysis
